Assay results as given in patent publication US20110243855A1, “METHOD AND IMAGING MEDIUM FOR USE IN THE METHOD” (priority 2007, published 2011).

Legend:
[1] = Liquid state polarisation of the dissolved imaging medium by liquid state 13C-NMR; assay type: physicochemical; conditions: for liquid state polarisation: liquid state 13C-NMR at 400 MHz, after 75 min DNP, dissolved in phosphate buffer pH 7, 50 mM
Procedure: In a similar way, the level of polarisation for dissolved hyperpolarised ^13C-acetate may be determined by liquid state NMR measurements. Again the signal intensity of the dissolved hyperpolarised ^13C-acetate is compared with the signal intensity of the dissolved ^13C-acetate before polarisation. The level of polarisation is then calculated from the ratio of the signal intensities of ^13C-acetate before and after polarisation. Hyperpolarisation of NMR active ^13C-nuclei may be achieved by different methods which are for instance described in described in WO-A-98/30918, WO-A-99/24080 and WO-A-99/35508, and which all are incorporated herein by reference and hyperpolarisation methods known in the art are polarisation transfer from a noble gas, “brute force”, spin refrigeration, the parahydrogen method and dynamic nuclear polarisation (DNP).
(§1) After 75 minutes of dynamic nuclear polarisation, the obtained frozen polarised composition was dissolved in 6 ml phosphate buffer (20 mM, pH 7, 100 mg/l EDTA, 0.9% NaCl). The pH of the final solution containing the dissolved composition was 7.3±0.1. The sodium ^13C1-acetate concentration in said final solution was 50 mM.
Liquid state polarisation was determined by liquid state ^13C-NMR at 400 MHz to be 19%.
as §1, with “TRIS-^13C1-acetate-d3” for “sodium ^13C1-acetate”
Liquid state polarisation was determined by liquid state ^13C-NMR at 400 MHz to be 32%.

[2] = Solid state polarisation after DNP, followed by solid state 13C-NMR; assay type: physicochemical; conditions: DNP at 1.2 K, 3.35 T, microwave 93.89 GHz, trityl radical and Gd-chelate
Source text: The level of polarisation may for instance be determined by solid state ^13C-NMR measurements in solid hyperpolarised ^13C-acetate, e.g. solid hyperpolarised ^13C-acetate obtained by dynamic nuclear polarisation (DNP) of ^13C-acetate. The solid state ^13C-NMR measurement preferably consists of a simple pulse-acquire NMR sequence using a low flip angle. The signal intensity of the hyperpolarised ^13C-acetate in the NMR spectrum is compared with signal intensity of ^13C-acetate in a NMR spectrum acquired before the polarisation process. The level of polarisation is then calculated from the ratio of the signal intensities of before and after polarisation.
The probe is inserted into the probe-retaining container, submerged in the liquid helium and irradiated with microwaves. The microwave frequency may be determined from the EPR line of the DNP agent, which depends on the magnetic field of the magnet as 28.0 GHz/T. The optimal microwave frequency may be determined by adjusting the frequency for maximal NMR signal. Preferably, the optimal microwave frequency is in the about 94 GHz for a magnet charged to 3.35 T, 110 GHz for a magnet charged to 4 T, 140 GHz for a magnet charged to 5 T and 200 GHz for a magnet charged to 7 T. The power may be chosen between 50 and 200 mW, dependent on the probe size. The level of polarisation may be monitored as earlier described by for instance acquiring solid state ^13C-NMR signals of the probe during microwave irradiation. Generally, a saturation curve is obtained in a graph showing NMR signal vs. time. […] A solid state ^13C-NMR measurement suitably consists of a simple pulse-acquire NMR sequence using a low flip angle. […] The polarisation is then calculated from the ratio of the signal intensities before and after DNP.
To a micro test tube was added sodium ^13C1-acetate (Aldrich, 24.9 mg, 0.30 mmol) and 16 μl water. […] Polarisation was followed by solid state ^13C-NMR and the solid state polarisation was determined to be more than 20%. […]

[3] = tested on: mouse myocardium; assay: In vivo 13C-MR spectroscopy in mice (heart), conversion of hyperpolarised 13C-acetate to 13C-acetyl-CoA and 13C-acetylcarnitine; design: species or system C57Bl/6 mouse
Procedure: 200 μl of an imaging medium which was prepared as described in Example 3a was injected into a C57Bl/6 mouse over a time period of 6 s. The TRIS-^13C1-acetate concentration in said imaging medium was 75 mM and the polarisation was 20% at the time of injection. A ^13C-surface coil (diameter 12 mm) was placed over the mouse myocardium. A rat ^1H-body coil was used for anatomical reference images and localised shimming. ^13C-MR spectroscopy was carried out with a 2.4 T Bruker spectrometer. A dynamic set of ^13C-MR spectra (in total 30) was acquired every 3 s with a 30 degree RF pulse. From this experiment a ^13C1-acetylcarnitine signal build-up over the time of the experiment was clearly seen (FIG. 1).
(§2) 200 μl of an imaging medium which was prepared as described in Example 3a was injected into a C57Bl/6 mouse over a time period of 6 s. The TRIS-^13C1-acetate concentration in said imaging medium was approx. 50 mM. In both experiments (n=2) a ^13C-surface coil (diameter 12 mm) was placed over the mouse myocardium and ^13C-MR spectroscopy was carried out in a 2.4 T Bruker spectrometer. A spectrum was acquired 10 s after the imaging medium had been injected with a 90 degree RF pulse. […] The ratio of ^13C1-acetylcarnitine to ^13C1-acetyl-CoA was roughly 3 times higher in the heart than in the liver, see Example 6.

[4] = tested on: mouse liver; assay: In vivo 13C-MR spectroscopy in mice (liver), conversion of hyperpolarised 13C-acetate to 13C-acetyl-CoA and 13C-acetylcarnitine; design: species or system C57Bl/6 mouse; conditions: 200 μl of approx. 50 mM, spectrum 10 s after injection, 90 degree pulse, n=2 (FIG. 2, 3)
Procedure: as §2, with “liver” for “myocardium”, “lower” for “higher”, “5.” for “6.”

liquid state polarisation [1] [%]	solid state polarisation [2]	polarisation at the time of injection ([1]; imaging medium 75 mM, at the time of injection into mouse) [%]	13C1-acetylcarnitine signal build-up over the time of the experiment ([3]; 200 μl of 75 mM injected over 6 s, 30 spectra every 3 s, 30 degree pulse, 2.4 T (FIG. 1))	identification of 13C1-acetyl-CoA and 13C1-acetylcarnitine ([3]; 200 μl of approx. 50 mM, spectrum 10 s after injection, 90 degree pulse, n=2 (FIG. 2, 3))	identification of 13C1-acetyl-CoA and 13C1-acetylcarnitine [4]	Compound
32	more than 25%	–	–	–	–	NC(CO)(CO)CO.[2H]C([2H])([2H])[13C](=O)O [TRIS-^13C1-acetate-d3]
–	more than 25%	20	clearly seen	could be identified	could be identified	C[13C](=O)O.NC(CO)(CO)CO [TRIS-^13C1-acetate]
19	more than 20%	–	–	–	–	C[13C](=O)[O-].[Na+] [sodium ^13C1-acetate]
